Measurements reported in patent US7803930B2, “Antisense modulation of apolipoprotein B-expression” (Isis Pharmaceuticals, Inc., priority 2002, dated 2010).

Assays:
[1] = High fat fed C57BL/6 mice, 6 week timecourse: body, spleen, liver and fat pad weight; type: in vivo, mouse; conditions: six weeks, vs saline-treated controls
Procedure: Male C57BL/6 mice (n=8) receiving a high fat diet (60% kcal fat) were evaluated over the course of 6 weeks for the effects of ISIS 147764 on body, spleen, liver and fat pad weight. Control animals received saline treatment (50 mg/kg). […]
At study termination, animals were sacrificed 48 hours after the final injections and body, spleen, liver and fat pad weights were measured. Values are expressed as percent change in body weight or ogan weight compared to the saline-treated control animals. Negative values indicated a decrease in weight.

[2] = Lean vs high fat fed C57BL/6 mice (Example 20): cholesterol, lipoprotein, triglyceride, liver enzyme and serum glucose levels; type: in vivo, mouse; conditions: 50 mg/kg i.p. every three days, six weeks
Procedure: Male C57BL/6 mice were divided into two matched groups; (1) wild-type control animals (lean animals) and (2) animals receiving a high fat diet (60% kcal fat). Control animals received saline treatment and were maintained on a normal rodent diet. After overnight fasting, mice from each group were dosed intraperitoneally every three days with saline or 50 mg/kg ISIS 147764 (SEQ ID No: 109) for six weeks. At study termination and forty eight hours after the final injections, animals were sacrificed and evaluated for target mRNA levels in liver, cholesterol and triglyceride levels, liver enzyme levels and serum glucose levels.

[3] = tested on: human apolipoprotein B protein; test: Transgenic mice dosing study (Example 52): serum human apolipoprotein B protein by ELISA; type: in vivo, human transgene in mouse
Procedure: A long-term study of inhibition of human apolipoprotein B by ISIS 301012 in C57BL/6NTac-TgN(APOB100) mice (Taconic, Germantown, N.Y.) was conducted for a 3 month period. Mice were dosed intraperitoneally twice a week with 10 or 25 mg/kg ISIS 301012 (SEQ ID No: 247) for 12 weeks. Saline-injected animals served as controls. Each treatment group comprised 4 animals.
After 2, 4, 6, 8 and 12 weeks of treatment, serum samples were collected for the purpose of measuring human apolipoprotein B protein. Serum protein was quantitated using an ELISA kit specific for human apolipoprotein B (ALerCHEK Inc., Portland, Me.). The data are shown in Table 30 and each result represents the average of 4 animals. Data are normalized to saline-treated control animals.

[4] = Lean-control group, C57BL/6 mice

Substance: GTCCCTGAAGATGTCAATGC (2'-MOE gapmer, further chemistry not given here) [ISIS 147764]
- Percent Change Fat (fat pad weight) ([1]; 5 mg/kg i.p.): 10%
- Percent Change Liver weight ([1]; 5 mg/kg i.p.): 18%
- Percent Change Spleen weight ([1]; 5 mg/kg i.p.): 10%
- Percent Change Total Body Wt. ([1]; 5 mg/kg i.p.): 5%
- Percent Change Fat (fat pad weight) ([1]; 25 mg/kg i.p.): 6%
- Percent Change Liver weight ([1]; 25 mg/kg i.p.): 70%
- Percent Change Spleen weight ([1]; 25 mg/kg i.p.): 10%
- Percent Change Total Body Wt. ([1]; 25 mg/kg i.p.): 5%
- Percent Change Fat (fat pad weight) ([1]; 50 mg/kg i.p.): −47%
- Percent Change Liver weight ([1]; 50 mg/kg i.p.): 80%
- Percent Change Spleen weight ([1]; 50 mg/kg i.p.): 46%
- Percent Change Total Body Wt. ([1]; 50 mg/kg i.p.): −4%
- Percent Change CHOL ([2]; High Fat Group, C57BL/6 mice): −67%
- Percent Change GLUC ([2]; High Fat Group, C57BL/6 mice): −28%
- Percent Change Lipoproteins HDL ([2]; High Fat Group, C57BL/6 mice): −65%
- Percent Change Lipoproteins LDL ([2]; High Fat Group, C57BL/6 mice): −87%
- Percent Change CHOL [2, 4]: −63%
- Percent Change Lipoproteins HDL [2, 4]: −44%
- Percent Change Lipoproteins LDL [2, 4]: −64%
- Percent Change TRIG [2, 4]: −34%
- changes in liver enzyme levels ([2]; lean and high fat C57BL/6 mice): No significant changes

Substance: ISIS 301012: SEQ ID NO: 247, antisense oligonucleotide targeted to human apolipoprotein B (antisense GCCTCAGTCTGCTTCGCACC; chemistry not given here)
- % Reduction in human apolipoprotein B protein in serum ([3]; 10 mg/kg i.p. twice a week, 2 weeks): 76%
- % Reduction in human apolipoprotein B protein in serum ([3]; 10 mg/kg i.p. twice a week, 4 weeks): 78%
- % Reduction in human apolipoprotein B protein in serum ([3]; 10 mg/kg i.p. twice a week, 6 weeks): 73%
- % Reduction in human apolipoprotein B protein in serum ([3]; 10 mg/kg i.p. twice a week, 8 weeks): 42%
- % Reduction in human apolipoprotein B protein in serum ([3]; 10 mg/kg i.p. twice a week, 12 weeks): 85%
- % Reduction in human apolipoprotein B protein in serum ([3]; 25 mg/kg i.p. twice a week, 2 weeks): 80%
- % Reduction in human apolipoprotein B protein in serum ([3]; 25 mg/kg i.p. twice a week, 4 weeks): 87%
- % Reduction in human apolipoprotein B protein in serum ([3]; 25 mg/kg i.p. twice a week, 6 weeks): 86%
- % Reduction in human apolipoprotein B protein in serum ([3]; 25 mg/kg i.p. twice a week, 8 weeks): 47%
- % Reduction in human apolipoprotein B protein in serum ([3]; 25 mg/kg i.p. twice a week, 12 weeks): 79%
- lowering of human apolipoprotein B protein in serum (ELISA) ([3]; 10 or 25 mg/kg i.p. twice a week, 2, 4, 6 or 12 weeks): approximately 80%
